Molecular target: T1, mutant AR (LNCaP) (Homo sapiens, UniProt P10275, T878A)
T1 construct: endogenous in cells; host or cells: LNCaP
T1 sequence (P10275 1-920 T878A): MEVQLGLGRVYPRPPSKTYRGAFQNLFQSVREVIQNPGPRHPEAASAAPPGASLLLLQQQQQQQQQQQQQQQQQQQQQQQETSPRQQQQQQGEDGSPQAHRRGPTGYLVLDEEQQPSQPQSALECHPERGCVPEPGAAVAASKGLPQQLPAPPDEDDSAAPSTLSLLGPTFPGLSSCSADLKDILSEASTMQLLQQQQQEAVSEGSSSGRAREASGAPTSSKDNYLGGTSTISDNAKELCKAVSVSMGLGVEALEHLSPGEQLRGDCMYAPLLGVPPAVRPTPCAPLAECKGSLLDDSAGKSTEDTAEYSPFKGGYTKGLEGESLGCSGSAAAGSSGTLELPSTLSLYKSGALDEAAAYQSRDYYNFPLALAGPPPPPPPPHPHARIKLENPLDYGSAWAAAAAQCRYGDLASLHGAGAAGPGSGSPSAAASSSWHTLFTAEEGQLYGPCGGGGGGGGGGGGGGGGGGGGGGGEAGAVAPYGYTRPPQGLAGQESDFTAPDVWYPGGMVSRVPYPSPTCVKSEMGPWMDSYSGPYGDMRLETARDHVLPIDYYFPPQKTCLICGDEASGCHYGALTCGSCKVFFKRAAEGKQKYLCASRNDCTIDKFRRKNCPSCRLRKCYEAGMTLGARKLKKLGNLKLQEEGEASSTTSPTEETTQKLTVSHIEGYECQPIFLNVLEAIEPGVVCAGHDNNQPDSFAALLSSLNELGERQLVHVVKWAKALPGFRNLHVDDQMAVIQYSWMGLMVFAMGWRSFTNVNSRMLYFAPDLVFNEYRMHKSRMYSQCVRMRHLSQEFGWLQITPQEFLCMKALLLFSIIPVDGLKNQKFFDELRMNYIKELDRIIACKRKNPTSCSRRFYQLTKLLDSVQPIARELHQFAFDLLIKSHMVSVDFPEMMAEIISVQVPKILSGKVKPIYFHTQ
Assay: AR competition assay with [3H]-R1881 in LNCaP cells
Format: binding
Conditions: for affinity for T877A mutant AR: [3H]-R1881, 30 min
Description: Cells were cultured in serum-free medium for 48 h and then treated with [^3H]-R1881 and the indicated concentrations of D4A, Abi, enzalutamide, R1881 or bicalutamide for 30 min. Cells were washed with 1×PBS 4 times and 0.9% NaCl solution twice before lysis with RIPA buffer.
Cells were starved with phenol red-free and serum free-medium for at least 48 h and then treated with [^3H]-R1881 and the indicated concentrations of drugs for 30 min. Cells were washed thoroughly with PBS and then lysed with […].

Row | Structure (SMILES) | affinity for T877A mutant AR | IC50 (competition with 0.1 nM [3H]-R1881, read-out: IC50, affinity for mutant AR) [nM]
1 | C[C@]12CC[C@@H](O)C[C@@H]1CC[C@@H]1[C@@H]2CC[C@]2(C)C(c3cccnc3)=CC[C@@H]12 [Compound 3α-OH-5α-Abi, 17-(3-pyridyl)-5α-androsta-16-ene-3α-ol] | lower | –
2 | C[C@]12CCC(=O)C[C@@H]1CC[C@@H]1[C@@H]2CC[C@]2(C)C(c3cccnc3)=CC[C@@H]12 [Compound 5α-Abi, 17-(3-pyridyl)-5α-androsta-16-ene-3-one] | comparable to that of D4A | –
3 | C[C@]12CCC(=O)C=C1CC[C@@H]1[C@@H]2CC[C@]2(C)C(c3cccnc3)=CC[C@@H]12 [Compound D4A, 17-(3-Pyridyl)androsta-4,16-dien-3-one] | – | 5.3

Source: patent US10265329B2, “Altering steroid metabolism for treatment of steroid-dependent disease” (THE CLEVELAND CLINIC FOUNDATION, priority 2015, dated 2019)
